Laboratory results: patent US4489163A, “rCRF and analogs” (The Salk Institute for Biological Studies, priority 1983, dated 1984)
“Also recorded” adds a separate entry of the source.

What was measured:
[1] = system: cultured rat pituitary cells; assay: secretion of ACTH and β-endorphin by cultured rat pituitary cells in vitro; format: cell-based
Excerpt: (§1) The synthetic and the natural rCRF were examined for their effects on the secretion of ACTH and β-endorphin in vitro and the synthetic rCRF was also examined in vivo.

[2] = system: ACTH and β-endorphin-like (β-END-LI) secretion; assay: ACTH and β-END-LI secretion in vivo after intravenous administration; design: species or system rats; settings: for stimulation of ACTH and β-END-LI secretion in vivo (words): several rat preparations
Excerpt: as §1

[3] = lowering of blood pressure in rats; format: in vivo
[4] = lowering of blood pressure in dogs; format: in vivo
[5] = activity and learning performance after administration into the ventricles; format: in vivo; settings: administered into the ventricles, rats
Excerpt: Because ACTH and β-END secretion is the "sine qua non" of an animal's response to stress, it was not surprising that rCRF has significant effects on the brain as a mediator of the body's stress response. Accordingly, rCRF may also find application in modifying the mood, learning and behavior of normal and mentally disordered individuals. Because rCRF and its analogs elevate the levels of ACTH, β-END, β-lipotropin, other pro-opiomelanocortin gene products and corticosterone, its administration can be used to induce their effects on the brain and its periphery to thereby influence memory, mood, pain appreciation, etc., and more specifically, alertness, depression and/or anxiety.

**Q.** With `CC[C@H](C)[C@H](NC(=O)[C@@H](NC(=O)[C@H](CCC(=O)O)NC(=O)[C@H](CCSC)NC(=O)[C@H](CC(C)C)NC(=O)[C@H](CCCCN)NC(=O)[C@H](CCCNC(=N)N)NC(=O)[C@H](CC(N)=O)NC(=O)[C@H](CO)NC(=O)[C@H](Cc1c[nH]cn1)NC(=O)[C@H](C)NC(=O)[C@H](CCC(N)=O)NC(=O)[C@H](CCC(N)=O)NC(=O)[C@H](C)NC(=O)[C@H](CC(C)C)NC(=O)[C@H](CCC(N)=O)NC(=O)[C@H](CCC(=O)O)NC(=O)[C@H](C)NC(=O)[C@H](CCCNC(=N)N)NC(=O)[C@H](C)NC(=O)[C@H](CCSC)NC(=O)[C@H](CCC(=O)O)NC(=O)[C@H](CC(C)C)NC(=O)[C@@H](NC(=O)[C@H](CCC(=O)O)NC(=O)[C@H](CCCNC(=N)N)NC(=O)[C@H](CC(C)C)NC(=O)[C@H](CC(C)C)NC(=O)[C@H](Cc1c[nH]cn1)NC(=O)[C@H](Cc1ccccc1)NC(=O)[C@@H](NC(=O)[C@H](CC(C)C)NC(=O)[C@H](CC(=O)O)NC(=O)[C@H](CC(C)C)NC(=O)[C@H](CO)NC(=O)[C@@H](NC(=O)[C@@H]1CCCN1C(=O)[C@@H]1CCCN1C(=O)[C@H](CCC(=O)O)NC(=O)[C@H](CCC(=O)O)NC(=O)[C@@H](N)CO)[C@@H](C)CC)[C@@H](C)O)C(C)C)[C@@H](C)CC)C(N)=O` [synthetic rCRF] as the compound, how does the EC50 ([1]; concentration giving half-maximal response, cultured rat pituitary cells) read?
**A.** ~0.1 nM

**Q.** What about the “minimal response, secretion of ACTH and β-endorphin” value ([1]; concentration giving minimal response, cultured rat pituitary cells) of the same compound?
**A.** about 10 picomolar

**Q.** What about the “maximal concentrations, secretory response at a plateau level” value ([1]; cultured rat pituitary cells) of the same compound?
**A.** > 5 nM

**Q.** And the “stimulation of secretion of ACTH and β-endorphin in vitro” value ([1]; in vitro)?
**A.** high potency; also recorded: stimulate ACTH and β-endorphin activies

**Q.** What about the “elevation of ACTH and β-endorphin-like (β-END-LI) secretion” value ([2]; in vivo doses from 30 ng to 3 μg/Kg of body weight) of the same compound?
**A.** 5-20 fold

**Q.** What about the “stimulation of ACTH and β-END-LI secretion in vivo (words)” value [2] of the same compound?
**A.** stimulate ACTH and β-endorphin activies

**Q.** And the “stimulation of ACTH and β-END-LI secretion in vivo (words)” value ([2]; listed as Synthetic rCRF)?
**A.** powerful stimulator of ACTH and β-END-LI secretion in vivo

**Q.** And the “time plasma levels of ACTH and β-END-LI are elevated” value ([2]; intravenous, nembutal-anesthesized male rats and quiescent male or female rats with indwelling cannulae)?
**A.** 5 to 20 min

**Q.** And the “lowering of blood pressure” value ([3]; rats)?
**A.** dramatic effect to lower blood pressure

**Q.** And the “lowering of blood pressure” value ([3]; species not given, general procedure of Example III)?
**A.** substantially lower blood pressure for an extended time period

**Q.** And the “lowering of blood pressure” value [4]?
**A.** dramatic effect to lower blood pressure

**Q.** And the activity [5]?
**A.** increases activity

**Q.** And the learning performance [5]?
**A.** improves learning performance
